Among the data in patent publication US9580390B2, “Indazole compounds as kinase inhibitors and method of treating cancer with same” (University Health Network, priority 2011, dated 2017) are IC50 and GI50 values, retold here.

Structures are written as SMILES. Where two headings read alike, the source gives them in different places. Some results are limits rather than exact numbers.

One test has as its target T1, human TTK (Homo sapiens, UniProt P33981).
T1 construct: amino terminal GST fusion of full length human TTK; purchased Invitrogen
T1 sequence (P33981 1-857): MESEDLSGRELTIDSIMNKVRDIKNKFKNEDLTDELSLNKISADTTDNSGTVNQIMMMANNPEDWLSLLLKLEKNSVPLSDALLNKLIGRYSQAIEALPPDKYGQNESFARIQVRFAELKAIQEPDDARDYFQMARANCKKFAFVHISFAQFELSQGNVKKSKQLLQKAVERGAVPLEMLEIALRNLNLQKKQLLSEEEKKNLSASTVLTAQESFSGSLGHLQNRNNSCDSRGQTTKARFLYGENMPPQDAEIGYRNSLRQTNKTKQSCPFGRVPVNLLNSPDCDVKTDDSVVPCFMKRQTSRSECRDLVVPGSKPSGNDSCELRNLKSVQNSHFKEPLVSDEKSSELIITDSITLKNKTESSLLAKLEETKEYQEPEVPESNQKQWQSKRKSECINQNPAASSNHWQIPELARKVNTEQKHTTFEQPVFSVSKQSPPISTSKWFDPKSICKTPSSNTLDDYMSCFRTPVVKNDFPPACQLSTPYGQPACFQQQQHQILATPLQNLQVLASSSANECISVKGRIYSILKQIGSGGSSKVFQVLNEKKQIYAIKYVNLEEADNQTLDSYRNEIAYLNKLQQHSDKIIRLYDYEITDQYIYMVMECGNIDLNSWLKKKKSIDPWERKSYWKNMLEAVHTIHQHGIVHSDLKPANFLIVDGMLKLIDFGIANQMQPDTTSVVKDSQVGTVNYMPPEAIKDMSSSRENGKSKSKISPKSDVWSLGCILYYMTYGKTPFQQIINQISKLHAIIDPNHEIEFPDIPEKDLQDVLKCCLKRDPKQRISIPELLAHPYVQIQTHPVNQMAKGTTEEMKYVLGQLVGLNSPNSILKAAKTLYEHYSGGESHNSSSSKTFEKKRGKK
Kind of test: TTK inhibition assay (indirect ELISA). It is filed as biochemical. The following applies: read-out: TTK IC50 Range. For orientation: In an ELISA, binding on a coated surface is turned into a signal by an enzyme label.

The subject of another test is Breast cancer cells. Kind of test: Cancer cell line growth inhibition (SRB assay). The class given is cell-based. The following applies: Homo sapiens; MDA-MB-468; read-out: Cancer Cell Line GI50 Range MDA-MB-468. Background: In SRB staining, fixed cells bind dye roughly in proportion to their protein.
In test [1] the test system is colon cancer cells (HCT116). Kind of test: Cancer cell line growth inhibition (SRB assay). The note with it: read-out: Cancer Cell Line GI50 Range HCT116. The class given is cell-based.
The subject of test [2] is ovarian cancer cells (PA-1). Kind of test: Cancer cell line growth inhibition (SRB assay). It is filed as cell-based. The following applies: PA-1, read-out: Cancer Cell Line GI50 Range PA-1.

With `CN1C2CCC1CC(Oc1ccc(-c3n[nH]c4ccc(C(=O)NC(c5ccccn5)C5CCCC5)cc34)cc1)C2` (stereo not shown) [Example A398, N-(cyclopentyl(pyridin-2-yl)methyl)-3-(4-((8-methyl-8-azabicyclo[3.2.1]octan-3-yl)oxy)phenyl)-1H-indazole-5-carboxamide], on human TTK, the IC50 – broadly, the midpoint of a concentration-inhibition curve – was below 100 nM. Also, the GI50 (in general, the concentration giving 50% growth inhibition) is below 100 nM in the test with Breast cancer cells; below 100 nM in test [1] (Homo sapiens, HCT-116); below 100 nM in test [2] (Homo sapiens).
`O=C(N[C@@H](c1ccsc1)C1CC1)c1ccc2[nH]nc(-c3ccc(OC4CCN(C[C@@H](O)C(F)(F)F)CC4)cc3)c2c1` [Example A224, N-((R)-cyclopropyl(thiophen-3-yl)methyl)-3-(4-((1-((R)-3,3,3-trifluoro-2-hydroxypropyl)piperidin-4-yl)oxy)phenyl)-1H-indazole-5-carboxamide]: the IC50 at human TTK was below 100 nM. Besides, the GI50 in the test on Breast cancer cells was above 500 nM; in test [1] (Homo sapiens, HCT-116), 100 to 500 nM; in test [2] (Homo sapiens) it was 100 to 500 nM.
Regarding `O=C(N[C@@H](c1ccccn1)C1CCCC1)c1ccc2[nH]nc(-c3ccc(N4C5COCC4CC(O)C5)cc3)c2c1` (stereo partly drawn) [Example A425, N-((R)-cyclopentyl(pyridin-2-yl)methyl)-3-(4-((1R,5S,7R)-7-hydroxy-3-oxa-9-azabicyclo[3.3.1]nonan-9-yl)phenyl)-1H-indazole-5-carboxamide], the IC50 on human TTK is below 100 nM. Moreover, the GI50 with Breast cancer cells is below 100 nM; in test [1] (Homo sapiens, HCT-116) it was below 100 nM; in test [2] (Homo sapiens) it was below 100 nM.
Turning to `C[C@@H](O)CN1CCC(Oc2ccc(-c3n[nH]c4ccc(C(=O)NCC5(OC6CCCC6)CCCCC5)cc34)cc2)CC1` [Example A444, (R)-N-((1-(cyclopentyloxy)cyclohexyl)methyl)-3-(4-((1-(2-hydroxypropyl)piperidin-4-yl)oxy)phenyl)-1H-indazole-5-carboxamide], the IC50 at human TTK was below 100 nM. Also, the GI50 in the test on Breast cancer cells was above 500 nM; in test [1] (Homo sapiens, HCT-116) it was above 500 nM; in test [2] (Homo sapiens), above 500 nM.
As to `O=C(NCC1(OC2CCCC2)CCCCC1)c1ccc2[nH]nc(-c3ccc(OC4CCN(C5COC5)CC4)cc3)c2c1` [Example A434, N-((1-(cyclopentyloxy)cyclohexyl)methyl)-3-(4-((1-(oxetan-3-yl)piperidin-4-yl)oxy)phenyl)-1H-indazole-5-carboxamide], the IC50 on human TTK was below 100 nM. Moreover, the GI50 in the test with Breast cancer cells is above 500 nM; in test [1] (Homo sapiens, HCT-116) it was above 500 nM; in test [2] (Homo sapiens) it was above 500 nM.
Take `CC(C)(O)CN1CCC(Oc2ccc(-c3n[nH]c4ccc(C(=O)N[C@H](c5ccsc5)C5CC5)cc34)cc2)CC1` [Example A218, (S)-N-(cyclopropyl(thiophen-3-yl)methyl)-3-(4-((1-(2-hydroxy-2-methylpropyl)piperidin-4-yl)oxy)phenyl)-1H-indazole-5-carboxamide]: the IC50 on human TTK was below 100 nM. Moreover, the GI50 in the test with Breast cancer cells lay in the range of 100 to 500 nM; in test [1] (Homo sapiens, HCT-116), 100 to 500 nM; in test [2] (Homo sapiens) it was 100 to 500 nM.
Regarding `CCC(CC)(CNC(=O)c1ccc2[nH]nc(-c3ccc(OC4CCN(C5COC5)CC4)cc3)c2c1)c1ccccc1` [Example A439, N-(2-ethyl-2-phenylbutyl)-3-(4-((1-(oxetan-3-yl)piperidin-4-yl)oxy)phenyl)-1H-indazole-5-carboxamide], the IC50 at human TTK is below 100 nM. The GI50 with Breast cancer cells lay within 100 to 500 nM; in test [1] (Homo sapiens, HCT-116), 100 to 500 nM; in test [2] (Homo sapiens), 100 to 500 nM.
As for `CC(C)C[C@H](NC(=O)c1ccc2[nH]nc(-c3ccc(N4CCN(C5COC5)CC4)cc3)c2c1)c1ccccc1` [Example A371, (S)-N-(3-methyl-1-phenylbutyl)-3-(4-(4-(oxetan-3-yl)piperazin-1-yl)phenyl)-1H-indazole-5-carboxamide], the IC50 on human TTK is below 100 nM. The GI50 in the test on Breast cancer cells is 100 to 500 nM; in test [1] (Homo sapiens, HCT-116) it was below 100 nM; in test [2] (Homo sapiens), below 100 nM.
In the case of `O=C(N[C@@H](c1ccccn1)C1CC1)c1ccc2[nH]nc(-c3ccc(N4C5CCC4CC(O)C5)cc3)c2c1` (stereo partly shown) [Example A512], the IC50 on human TTK was below 100 nM. For the same compound, the GI50 in the test with Breast cancer cells was 100 to 500 nM; in test [1] (HCT116), below 100 nM; in test [2], below 100 nM.
For the compound `CCC(CC)(CNC(=O)c1ccc2[nH]nc(-c3ccc(OC4CCN(C)CC4)cc3)c2c1)c1ccccc1` [Example A440, N-(2-ethyl-2-phenylbutyl)-3-(4-((1-methylpiperidin-4-yl)oxy)phenyl)-1H-indazole-5-carboxamide], the IC50 at human TTK was below 100 nM. In addition, the GI50 in the test with Breast cancer cells lay in the range of 100 to 500 nM; in test [1] (Homo sapiens, HCT-116), 100 to 500 nM; in test [2] (Homo sapiens), 100 to 500 nM.
As for `CN1C2CCC1CC(Oc1ccc(-c3n[nH]c4ccc(C(=O)NC(c5ccccc5)C(F)(F)F)cc34)cc1)C2` (stereo not shown) [Example A400], the IC50 at human TTK was below 100 nM. In addition, the GI50 in the test on Breast cancer cells is above 500 nM; in test [1] (Homo sapiens, HCT-116) it was 100 to 500 nM; in test [2] (Homo sapiens), 100 to 500 nM.
In the case of `CN1CC(Oc2ccc(-c3n[nH]c4ccc(C(=O)N[C@H](c5ccccn5)C5CCCC5)cc34)cc2)C1` [Example A295, (S)-N-(cyclopentyl(pyridin-2-yl)methyl)-3-(4-((1-methylazetidin-3-yl)oxy)phenyl)-1H-indazole-5-carboxamide], the IC50 on human TTK was below 100 nM. The 50% growth inhibitory concentration (GI50) in the test on Breast cancer cells is 100 to 500 nM; in test [1] (Homo sapiens, HCT-116), below 100 nM; in test [2] (Homo sapiens), below 100 nM.
On to `CN1[C@@H]2CC[C@H]1C[C@@H](Oc1ccc(-c3n[nH]c4ccc(C(=O)NCC5(c6ccccn6)CC5)cc34)cc1)C2` [Example A488], for which the IC50 at human TTK is below 100 nM. Moreover, the GI50 with Breast cancer cells was above 500 nM; in test [1] (Homo sapiens, HCT-116), above 500 nM; in test [2] (Homo sapiens), above 500 nM.
`CCC(CC)(CNC(=O)c1ccc2[nH]nc(-c3ccc(OC4CCN(C[C@@H](C)O)CC4)cc3)c2c1)c1ccccc1` [Example A443, (R)-N-(2-ethyl-2-phenylbutyl)-3-(4-((1-(2-hydroxypropyl)piperidin-4-yl)oxy)phenyl)-1H-indazole-5-carboxamide]: at human TTK, the IC50 was below 100 nM. Moreover, the GI50 with Breast cancer cells was above 500 nM; in test [1] (Homo sapiens, HCT-116), 100 to 500 nM; in test [2] (Homo sapiens), 100 to 500 nM.
As to `CN1CCC(CNC(=O)c2ccc3[nH]nc(-c4ccc(N5[C@@H]6CC[C@H]5COC6)cc4)c3c2)(c2ccccc2)CC1` [Example A468, 3-(4-((1R,5S)-3-oxa-8-azabicyclo[3.2.1]octan-8-yl)phenyl)-N-((1-methyl-4-phenylpiperidin-4-yl)methyl)-1H-indazole-5-carboxamide], on human TTK, the half-maximal inhibitory concentration (IC50) is below 100 nM. The GI50 in the test with Breast cancer cells is above 500 nM; in test [1] (Homo sapiens, HCT-116), 100 to 500 nM; in test [2] (Homo sapiens), 100 to 500 nM.
On to `O=C(NCC1(N2CCOCC2)CCCOC1)c1ccc2[nH]nc(-c3ccc(N4C5CCC4CC(O)C5)cc3)c2c1` [Example A495, 3-(4-((1R,3R.5S)-3-hydroxy-8-azabicyclo[3.2.1]octan-8-yl)phenyl)-N-((3-morpholinotetrahydro-2H-pyran-3-yl)methyl)-1H-indazole-5-carboxamide], for which the IC50 at human TTK is below 100 nM. Moreover, the GI50 was 100 to 500 nM with Breast cancer cells; 100 to 500 nM in test [1] (Homo sapiens, HCT-116); below 100 nM in test [2] (Homo sapiens).
With `CC1(C)CC(=O)c2cc(-c3n[nH]c4ccc(C(=O)N[C@H](c5ccccn5)C5CC5)cc34)ccc2O1` [Example A236, (S)-N-(cyclopropyl(pyridin-2-yl)methyl)-3-(2,2-dimethyl-4-oxochroman-6-yl)-1H-indazole-5-carboxamide], at human TTK, the IC50 was below 100 nM. Further, the GI50 in the test with Breast cancer cells was above 500 nM; in test [1] (Homo sapiens, HCT-116), above 500 nM; in test [2] (Homo sapiens) it was above 500 nM.
Take `CC(C)C[C@H](NC(=O)c1ccc2[nH]nc(-c3ccc(N4CC(N5CCOCC5)C4)cc3)c2c1)c1ccccc1F` [Example A276, (S)-N-(1-(2-fluorophenyl)-3-methylbutyl)-3-(4-(3-morpholinoazetidin-1-yl)phenyl)-1H-indazole-5-carboxamide]: the IC50 at human TTK was below 100 nM. The GI50 in the test on Breast cancer cells is 100 to 500 nM; in test [1] (Homo sapiens, HCT-116), below 100 nM; in test [2] (Homo sapiens) it was below 100 nM.
Take `CC(C)C(NC(=O)c1ccc2[nH]nc(-c3ccc(OC4CN(C)C4)cc3)c2c1)c1ccccc1Cl` (stereo not shown) [Example A289, N-(1-(2-chlorophenyl)-2-methylpropyl)-3-(4-((1-methylazetidin-3-yl)oxy)phenyl)-1H-indazole-5-carboxamide]: on human TTK, the IC50 was below 100 nM. Moreover, the GI50 with Breast cancer cells is above 500 nM; in test [1] (Homo sapiens, HCT-116), 100 to 500 nM; in test [2] (Homo sapiens), 100 to 500 nM.
